Common to all, as to format: cell-based, human
In assay [1] the test system is hES cells. The assay is described as follows: Embryoid body differentiation of hES cells, visual scoring of beating EBs. The conditions noted are these: for CM induction activity (number of beating areas): growth factor 10 ng/ml added to END2-CM, day 12, compared to END2-CM alone; for effect on induction of cardiomyocytes: supplemented to DMEM3 (giving bSFS). Here is the method:
This procedure describes the formation of embryoid bodies (EB) from collagenase-derived hES cell cultures. After formation the EBs were then exposed to END2 conditioned medium (CM).
Enzymatically passaged hES cells grown on feeder cells were washed once with PBS^+ and treated with Collagenase IV (1 mg/ml) for 3-4 min at 37° C. The Collagenase IV solution was replaced by DMEM and the cells were mechanically dissociated with a pipette tip. Cells were then harvested using a cell scraper and the cell suspension was transferred to a 50 ml tube (Falcon). Cell clumps were collected by gravity and the supernatant was aspirated. Cells were resuspended in fresh DMEM medium aiming to uniformly disperse the cell clumps in the suspension. An equal volume of the cell suspension was then transferred to ultra low attachment plates (Costar). Usually 6-well plates were used and cells were cultured in 2 ml of medium. Alternatively, cells can be seeded into plates under conditions supporting cell adherence to induce differentiation of hES cells attached to a surface.
In suspension culture, EBs are formed in ultra low attachment plates in SF medium over night. After over night incubation SF medium was replaced by fresh SF medium or END2-CM respectively for further differentiation. Subsequent medium changes were performed every 3-4 days. Usually, cells were cultured over a period of 12-13 days before the visual analysis of the proportion of beating EBs under a microscope was performed followed by cell collection for additional readouts. Multiple beating areas on single EBs were not counted separately. Values are expressed as a percentage of contracting EBs compared to […] in a single well of a 6-well tray. Cell harvest and analysis at time points other then 12-13 days after EB formation is indicated in the respective examples and figures of this embodiment. For EB scoring and other analytical methods hES cell differentiation was performed in triplicates applying the same culture conditions (e.g. the same medium added) in 3 independent wells of a 6-well plate. An average value per well was calculated and presented.

Assay [2] concerns hES cells. The assay is described as follows: Real time RT-PCR for cardiac markers (α-MHC, ANF). The procedure: RNA extraction: EBs at the end of the twelve day period were harvested. […] Trizol (Invitrogen) was added before freezing the EBs at -80° C. to ease cell lysis. Frozen samples were thawed and […]. Chloroform was added to the sample and incubated for 3 min at room temperature. The sample was centrifuged for 15 min at 13000 rpm at 4° C. and the aqueous phase collected. An equal volume of 70% ethanol was added before the sample was loaded onto an RNeasy mini column (Qiagen). The column was centrifuged for 15 sec at ≧8000 g. The rest of the purification steps were performed according to manufacturer's instructions. RNA was eluted in RNase-free water. 5 μg of the RNA sample was then treated with DNase (Invitrogen) in a volume of 50 μl. The mixture was incubated at room temperature for 30 min and heat inactivated for 10 min at 80° C. before cooling rapidly on ice. […] Samples were incubated for 1 hour at 37° C. before the reaction was terminated for 5 min at 95° C. RT-PCR was performed using 100 ng of cDNA with the following conditions: Cycle 1 (40×) denaturation at 95° C. for 10 s, annealing at 58° C. for 30 s and extension at 72° C. for 45 s. Melting curve step was included at the end with the following conditions: […] The gene primers used are α-MHC (sense primer: […] NO: 1); antisense primer: […] (sense primer: […] NO: 3); antisense primer […] NO: 4)) and β-Actin (sense primer: […] […]

For assay [3], the system named is hES cells. The assay is described as follows: Cardiomyocyte quantification via cytospin (MF-20 / αMHC staining). The settings on record: for cardiomyocyte yield compared to bSFS alone: L-IGF-I 5.0 ng/ml, AA 5.0 μM, FGF2 […] into bSFS. Here is the method: EBs were washed twice with PBS (without calcium and magnesium) and dissociated to single cells using trypsin (Invitrogen). […] The cell pellet was resuspended in PBS and a cell count performed. 100,000 cells were spun at 500 rpm for 5 min onto glass slides at low acceleration using a cytospin system (Shandon). Adherent cells were fixed, stained and the total cell number (DAPI staining of cell nuclei) and the number of sarcomeric alpha myosin heavy chain positive cells (αMHC, MF-20 Ab, Hybridoma Bank, Iowa; 1:200 followed by respective rabbit-anti mouse Cy3-labeled secondary Ab 1:500, Zymed) were counted in at least 3 independent fields of view at 20× magnification with at least 300 nuclei per field; fields were randomly selected in the DAPI channel (Zeiss Axiovert 200M, Zeiss) avoiding bias towards cardiomyocyte content. The percentage of cardiomyocytes compared to the total cell nuclei number was calculated.
Readouts were performed on day 13. […] The percentage of cardiomyocytes was counted via cytospin and the cardiomyocyte yield was calculated from the total cell count per well and the percentage of cardiomyocytes. Results are presented in Table 2 which provides an analysis on day 12 EBs differentiated in the presence of respective media added with substances as indicated in the table. Differentiation was performed in suspension in a low attachment 6-well format. Average numbers per well of a 6-well plate are presented.

Assay [4] relates to Transgenic hES cells carrying α-MHCneo. The assay is described as follows: G418 selection of transgenic hES-derived cardiomyocytes, MF-20 staining. The procedure: Transgenic hES cells carrying α-MHCneo were differentiated in END-2 conditioned media as described in Example 8 and then selected with 200 µg/ml or 400 μg/ml G418 for various periods. Cells were dissociated by trypsin and plated onto chamber slides. Transgenic cardiomyocytes that were not selected with G418 were also plated as a control. Cells were then fixed by 2% paraformaldehyde and stained with the MF-20 antibody, which recognizes cardiac α-MHC. Cells were counterstained with haematoxylin to reveal nuclei. Cells […] for MF-20 staining in each slide preparation were counted and calculated as a percentage of total nuclei.

In another assay the test system is H3M11 cardiomyocytes. The experiment in a line: Microelectrode array recording of selected cardiomyocytes. The settings on record: 10 μM isoproterenol; from 46 beats/min before addition. The text has this:
H3M11, one of the transgenic hES lines carrying the mouse α-MHCneo transgene, was differentiated in END-2 conditioned media to induce cardiomyocytes and then selected with G418 for 1 week. G418-selected H3M11 cardiomyocytes were dissociated and plated on microelectrode array chips each containing 64 electrodes (Multi Channel Systems MCS GmbH, Reutlingen, Germany). Extracellular recordings were made with the MEA1060 amplifier and MC-Rack software. Sampling rate was 10 kHz. A control recording was made before addition of compounds.

Setting [5] is: insulin 0.1-10 μg/ml added to END2-CM.

Take “Scf: recombinant human Scf, stem cell factor (CytoLab)”: the “CM induction activity (number of beating areas)” value in the assay with hES cells [1] is given as “enhance CM induction activity”.

Regarding “insulin: Insulin (Roche) spiked into END2-CM”, the “cardiomyocyte formation from hESC” value is given as “complete inhibition” with hES cells [1] (insulin 10 μg/ml added to END2-CM) and “dose dependent inhibition” in the assay with hES cells [1] (setting [5]). The “relative expression of early cardiomyocyte markers (MesP1, NRx2.5, ANF, α-MHC)” value in the assay on hES cells [2] (setting [5]) is “dose dependent decrease in expression”.

Regarding “Transferrin: medium supplement, 0.0055 mg/ml Transferrin (Roche)”, in the assay with hES cells [1], the “effect on induction of cardiomyocytes” value is given as “not inhibitory”.

On to `O=[Se]([O-])[O-].[Na+].[Na+]` [Selenium, sodium Selenite], for which the “effect on induction of cardiomyocytes” value in the assay with hES cells [1] is “not inhibitory”.

Take `CC(=O)O` [AA, acetic acid]: the “cardiomyocyte yield compared to bSFS alone” value in the assay with hES cells [3] is given as “some increase”.

`CN[C@@H]1[C@@H](O)[C@@H](O[C@@H]2[C@@H](O)[C@H](O[C@H]3O[C@H]([C@@H](C)O)[C@@H](O)[C@H](O)[C@H]3N)[C@@H](N)C[C@H]2N)OC[C@]1(C)O` [G418]: the Percent cardiomyocytes came to 99.02% in assay [4] (G418 200 μg/ml for 10 days), 99.20% in assay [4] (G418 200 μg/ml for 16 days), 99.53% in assay [4] (G418 400 μg/ml 13 days) and 99.85% in assay [4] (G418 400 μg/ml for 7 days). In addition, the “cells positive for the cardiac marker” value in assay [4] (two different G418 concentrations for various days) is listed as “greater than 99%”.

For `CCCCC[C@H](O)/C=C/[C@@H]1[C@H]2C/C(=C/CCCC(=O)[O-])O[C@H]2C[C@H]1O.[Na+]` [PGI2, (5Z,9α,11α,13E,15S)-6,9-Epoxy-11,15-dihydroxyprosta-5,13-dien-1-oic acid Sodium salt], the cardiomyocyte inducing activity result in the assay with hES cells [1] (PGI2 0.2 and 2.0 μM in bSFS) is on record as “increase in cardiomyocyte inducing activity to levels similar to that observed with END2-CM”. Moreover, the “percentage of beating EBs” value with hES cells [1] (PGI2 2, 20, 200, 2000 nM in DMEM3, day 12, in comparison with basic DMEM3) is reported as “significant increases”. For the same molecule, the “percentage of the overall cell population that forms cardiomyocytes” value in the assay on hES cells [3] (bSFS+PGI2, cytospin MF20) is “equivalent to that observed in END2-CM cultures”. Also, in the assay with hES cells [2] (bSFS+PGI2 compared to END-CM), the “expression of cardiomyocyte marker genes α-MHC and ANF” value is given as “equivalent, if not enhanced expression”.

For Igf2: recombinant human Igf2 (R&D), the “CM induction activity (number of beating areas)” value in the assay on hES cells [1] was “enhance CM induction activity”.

In the case of `CC(C)NCC(O)c1ccc(O)c(O)c1` (stereo not shown) [isoproterenol], the beating frequency in the assay on H3M11 cardiomyocytes came out at 70 beats/min.

As to “FGF2: Basic Fibroblast Growth Factor; Invitrogen”, the “cardiomyocyte yield compared to bSFS alone” value in the assay with hES cells [3] is “some increase”.

For the origin of these results see US8318489B2, “Prostacyclin directed differentiation of cardiomyocytes from human embryonic stem cells” (priority 2005, dated 2012).
